Test results as given in patent US4691024A, “New mitomycin derivatives, preparation thereof and pharmaceutical compositions containing them” (priority 1984, dated 1987).
In brackets after ≈: the same amount, converted by molar mass. Structures can show the parent of a compound that is named as a salt.

Assays:
[1] = test system: Staphylococcus aureus ATCC 6538P; experiment: Antibacterial activity, minimum growth inhibitory concentration by agar dilution method (SA); format: cell-based; conditions: ATCC6538P, pH 7, read-out: MIC, Staphylococcus aureus (SA)
Procedure: (§1) The various compounds of formula (I) of Examples 1-26 were tested for antibacterial activity against 6 microorganisms. […]. In this table, the following symbols are used:
SA: Staphylococcus aureus ATCC 6538P

[2] = Acute toxicity in mice (LD50, Behrens Kerber's method); conditions: mouse, in vivo, ip; ddy mice, single intraperitoneal administration, 14 days observation
Procedure: (§2) The antitumour-activity and toxicity of various compounds of formula (I) were investigated as indicated below.
Each animal of the test group consisting of 5 ddy mice was administered intraperitoneally once with a test compound. […] The LD50 was determined by Behrens Kerber's method.

peripheral leucocytes = experiment: Effect on the peripheral leucocytes number in Sarcoma 180 bearing mice; format: in vivo; conditions: Sarcoma 180 bearing ddy mice; intraperitoneal 24 hours after implantation; blood 4 days later
Procedure: as §2
(4) Effect on the peripheral leucocytes number
Sarcoma 180 solid tumour cells (5×10^6) were subcutaneously implanted into the right arm pit of each mouse (body weight 20±2 g) of a group consisting of 5 male mice (ddy strain). 24 hours after implantation, a test compound was intraperitoneally administered to each animal. 4 days later, blood (each 0.02 ml) was collected from the suborbital plexus vein of each tumour-carrying animal. The collected sample of the blood was dispersed in 9.98 ml of Cell-Kit Seven solution. One drop of saponin solution was added to the sample to dissolve erythrocytes, and then a microcell counter was used to measure the number of leucocytes. On a graph paper, the number of leucocytes was indicated on the y-axis by an arithmetic scale and the dose of the test compound was indicated on the x-axis by a logarithmic scale. The relationship between the number of peripheral leucocytes and the dosage of the test compound was plotted and the dosage corresponding to 4000 peripheral leucocytes/mm^3 (about 1/2 the number of leucocytes of normal mice) was obtained. This value is denoted in Table 5 by WBC4000.

Bacillus subtilis 10707 = experiment: Antibacterial activity, minimum growth inhibitory concentration by agar dilution method (BS); format: cell-based; conditions: Bacillus subtilis, 10707, pH 7, read-out: MIC, Bacillus subtilis (BS)
Procedure: as §1
BS: Bacillus subtilis 10707

Sarcoma 180 solid tumour = experiment: Anti-tumour activity against Sarcoma 180 solid tumour in mice; format: in vivo; conditions: Mus musculus, sc, 168 h; Sarcoma 180 s.c. in ddy mice; into tail vein 24 hours after implantation; volume at 7 days; read-out: ED50 (dose reducing tumour volume to 50% of control)
Procedure: as §2
(1) Effect against Sarcoma 180 solid tumour cells
5×10^6 cells of Sarcoma 180 solid tumour were intraperitoneally implanted into ddy mice. 7 days later, ascites cells were sampled. The cells were washed once with a sterilized physiological solution of sodium chloride and were used to prepare a cell suspension containing 5×10^7 cells per ml. On each occasion, 0.1 ml of the cell suspension was subcutaneously implanted into the right arm pit of a male mouse (ddy strain; body weight 20±2 g). The test compound was dissolved in a physiological solution of sodium chloride with or without addition of Tween 80 and was administered into the tail vein of each mouse of a group consisting of 5 mice at a dose of 0.1-0.2 ml, 24 hours after the implantation of the tumour cells.
The anti-tumour activity was determined in the following manner. 7 days after the implantation, the major axis (a) and the minor axis (b) of the tumour were measured to calculate a value of "a×b^2 /2" which corresponds to the volume of the tumour. The anti-tumour activity was expressed by the ratio of the volume of the tumours (T) of the group of animals administered with the test compound to the corresponding volume of tumours (c) of the untreated animals.
(2) Determination of ED50
(The amount needed for reducing the volume of Sarcoma 180 solid tumours in mice to 50% on the basis of the corresponding volume of Sarcoma solid tumours in control untreated animals). On graph paper, T/C (the ratio of the volume of tumours of treated and control animals) was indicated by an arithmetic scale on the longitudinal axis and the administered amount of the test compound was indicated by a logarithmic scale on the lateral axis.
The relationship between the dose and T/C was shown by a straight line determined by the method of least squares, from which a dose corresponding to T/C of 0.5 was obtained.

[3] = test system: Klebsiella pneumoniae ATCC 10031; experiment: microbe, parasite or virus in culture; format: cell-based; conditions: ATCC10031, pH 7, read-out: MIC, Klebsiella pneumoniae (KP)
Description: In this table, the following symbols are used:
KP: Klebsiella pneumoniae ATCC 10031

[4] = test system: Shigella sonnei ATCC 9290; experiment: Antibacterial activity, minimum growth inhibitory concentration by agar dilution method (SS); format: cell-based; conditions: ATCC9290, pH 7, read-out: MIC, Shigella sonnei (SS)
Procedure: as §1
SS: Shigella sonnei ATCC 9290

[5] = test system: Proteus vulgaris ATCC 6897; experiment: Antibacterial activity, minimum growth inhibitory concentration by agar dilution method (PV); format: cell-based; conditions: ATCC6897, pH 7, read-out: MIC, Proteus vulgaris (PV)
Procedure: as §1
PV: Proteus vulgaris ATCC 6897

[6] = test system: Streptococcus faecalis ATCC 10541; experiment: Antibacterial activity, minimum growth inhibitory concentration by agar dilution method (SF); format: cell-based; conditions: Enterococcus faecalis, ATCC10541, pH 7, read-out: MIC, Streptococcus faecalis (SF)
Procedure: as §1
SF: Streptococcus faecalis ATCC 10541

[7] = Solubility in 0.03M phosphate buffered solution; format: physicochemical; conditions: 0.03m phosphate buffer, aqueous buffer, pH 7.0, 23° C.
Procedure: The solubilities of Compound 5, Compound 14 and Compound 20 in 0.03M phosphate buffered solution (pH 7.0, 23° C.) were determined.

| SMILES | MIC [1] [mg/L] | LD50 at 336 h [2] [mg/kg] | WBC4000 (dosage corresponding to 4000 peripheral leucocytes/mm^3) (peripheral leucocytes) [mg/kg] | MIC (Bacillus subtilis 10707) [mg/L] | ED50 (Sarcoma 180 solid tumour) [mg/kg] | MIC [3] [mg/L] | MIC [4] [mg/L] | MIC [5] [mg/L] | MIC [6] [mg/L] | solubility [7] [mg/mL] |
| --- | --- | --- | --- | --- | --- | --- | --- | --- | --- | --- |
| CO[C@@]12[C@H](COC(N)=O)C3=C(C(=O)C(C)=C(NCCSSc4cccc(N)c4)C3=O)N1C[C@@H]1N[C@@H]12 [Compound 3, 7-N-[2-(3-aminophenyldithio)ethyl]mitomycin C] | 0.08 (≈ 0.155 µM) | 7.5 | > 10 | < 0.01 | 5 | 0.63 (≈ 1.22 µM) | 20 (≈ 38.6 µM) | 5 (≈ 9.66 µM) | 0.04 (≈ 0.0773 µM) |  |
| CO[C@@]12[C@H](COC(N)=O)C3=C(C(=O)C(C)=C(NCCSSC[C@H](N)C(=O)NCC(=O)O)C3=O)N1C[C@@H]1N[C@@H]12 [Compound 20, 7-N-[2-[(Glycino-L-cystein-S-71)thio]ethyl]mitomycin C] | 0.31 (≈ 0.543 µM) | 27 | 20.5 | 0.08 (≈ 0.14 µM) | 9.6 | 0.63 (≈ 1.1 µM) |  | 5 (≈ 8.76 µM) | 0.63 (≈ 1.1 µM) | > 100 |
| CO[C@@]12[C@H](COC(N)=O)C3=C(C(=O)C(C)=C(NCCSSc4ccc(NC(C)=O)cc4)C3=O)N1C[C@@H]1N[C@@H]12 [Compound 5, 7-N-[2-(4-Acetamidophenyldithio)ethyl]mitomycin C] | 0.02 (≈ 0.0357 µM) | 30 | 14.2 | 0.005 (≈ 0.00893 µM) | 8.5 | 0.16 (≈ 0.286 µM) | > 40 | 5 (≈ 8.93 µM) | 0.04 (≈ 0.0715 µM) | 0.052 (≈ 92.9 µM) |
| CO[C@@]12[C@H](COC(N)=O)C3=C(C(=O)C(C)=C(NCCSSc4ccccc4N)C3=O)N1C[C@@H]1N[C@@H]12 [Compound 2, 7-N-[2-(2-Aminophenyldithio)ethyl]mitomycin C] | 0.04 (≈ 0.0773 µM) |  |  | < 0.02 |  | 0.31 (≈ 0.599 µM) | 20 (≈ 38.6 µM) | 2.5 (≈ 4.83 µM) | < 0.02 |  |
| CO[C@@]12[C@H](COC(N)=O)C3=C(C(=O)C(C)=C(NCCSSC[C@H](NC(C)=O)C(=O)O)C3=O)N1C[C@@H]1N[C@@H]12 [Compound 19, 7-N-[2-[(N-Acetyl-L-cystein-S-yl)thio]ethyl]mitomycin C potassium salt] | 0.63 |  |  | 0.08 |  | 0.63 | > 20 | 2.5 | 1.3 |  |
| CO[C@@]12[C@H](COC(N)=O)C3=C(C(=O)C(C)=C(NCCSSc4ccc(Cl)cc4)C3=O)N1C[C@@H]1N[C@@H]12 [Compound 11, 7-N-[2-(4-Chlorophenyldithio)ethyl]mitomycin C] | < 0.01 | 9 | > 10 | < 0.01 | 4.5 | 0.63 (≈ 1.17 µM) | 10 (≈ 18.6 µM) | 0.63 (≈ 1.17 µM) | 0.04 (≈ 0.0745 µM) |  |
| CC(=O)Nc1ccc(SSCCNC2=C(C)C(=O)C3=C(C2=O)[C@H](COC(N)=O)[C@@]2(O)[C@@H]4[C@H](CN32)N4C)cc1 (some centres unmarked) [Compound 7, 7-N-[2-(4-Acetamidophenyldithio)ethyl]mitomycin D] | 10 (≈ 17.9 µM) | 46.3 | 45.5 | 5 (≈ 8.93 µM) | > 25 |  |  | > 40 | 5 (≈ 8.93 µM) |  |
| CO[C@@]12[C@H](COC(N)=O)C3=C(C(=O)C(C)=C(NCCSSc4ccc(F)cc4)C3=O)N1C[C@@H]1N[C@@H]12 [Compound 12, 7-N-[2-(4-Fluorophenyldithio)ethyl]mitomycin C] | < 0.02 | 6.8 | 10.4 | < 0.02 | 3.5 | 0.31 (≈ 0.595 µM) | 20 (≈ 38.4 µM) | 0.63 (≈ 1.21 µM) | < 0.02 |  |
